Measurements reported in patent publication US5723103A, “Substituted benzamides and radioligand analogs and methods of use” (Vanderbilt University, priority 1994, dated 1998).
Read-outs that look alike come from different tables or passages of the source.

Tests used:
[1] = Apparent lipophilicity from reverse-phase HPLC at pH 7.4; format: physicochemical; details: not told
Source text: (b) Extrapolated reverse phase capacity factors in MOPS buffer at pH 7.4.

5-HT-3 receptor [2] = biological target: T1, 5-HT-3 receptor (Rattus norvegicus, UniProt P35563)
T1 sequence (P35563 24-483): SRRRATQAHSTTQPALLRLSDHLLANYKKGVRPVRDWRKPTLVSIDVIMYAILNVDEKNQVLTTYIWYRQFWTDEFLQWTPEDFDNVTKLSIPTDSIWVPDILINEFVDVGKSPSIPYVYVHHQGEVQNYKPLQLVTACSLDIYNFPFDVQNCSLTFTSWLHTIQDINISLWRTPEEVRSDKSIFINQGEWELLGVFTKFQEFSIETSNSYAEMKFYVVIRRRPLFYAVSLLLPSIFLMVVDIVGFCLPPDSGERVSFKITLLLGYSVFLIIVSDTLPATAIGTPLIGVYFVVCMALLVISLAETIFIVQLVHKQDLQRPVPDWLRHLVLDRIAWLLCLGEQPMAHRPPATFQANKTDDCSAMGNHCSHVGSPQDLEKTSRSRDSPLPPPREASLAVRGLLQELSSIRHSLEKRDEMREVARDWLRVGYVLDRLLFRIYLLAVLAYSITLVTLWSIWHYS
Procedure: Evaluation of the compounds of the present invention was performed by incubating the radiolabeled agent with tissue homogenates known to contain these receptors. By inhibiting the binding with various concentrations of competing ligands the relative potencies of unlabeled analogs were determined. The apparent lipophilicities of the compounds of the invention were estimated from the retention times in reverse-phase HPLC at pH 7.4.

drug-induced anxiety = details: literature; cited from earlier work
emesis = details: literature; cited from earlier work
5-HT-3 receptor [3] = details: literature, cited from earlier work
animal behavioral models = details: literature; cited from earlier work
5-HT-3 receptor [4] = biological target: T1, 5-HT-3 receptor; format: binding; set-up: from tissue; host or cells: rat entorhinal cortex homogenate / membranes; details: rat entorhinal cortex
Source text: In all FIGS. 1-3, triangles represent total binding, open circles represent non-specific binding, and darkened circles represent specific binding.

[5] = extrapolated reverse phase capacity factors in MOPS buffer, read-out: log Papp (apparent lipophilicity)
[6] = Ki, displacement of 0.64 nM [^125 I]-4 binding, Table 3, rat entorhinal cortex homogenate, HEPES buffer, nine concentrations 0.3 to 300 nM, triplicates

| SMILES | chromatographic logD [1, 5] | also measured |
| --- | --- | --- |
| C=CCOc1ccc(I)cc1C(=O)N[C@@H]1CN2CCC1CC2 [TDP 918] | 2.76 | – |
| COc1cc(Br)cc(C(=O)N[C@@H]2CN3CCC2CC3)c1OC [TDP 923] | 1.74 | – |
| CCN1CCC[C@H]1CNC(=O)c1cc(I)cc(OC)c1OC [epidepride] | – | Ki (5-HT-3 receptor [2]): 1040 nM |
| COc1cc(Cl)cc(C(=O)N[C@@H]2CN3CCC2CC3)c1OC/C=C/I [TDP 984] | 2.58 | – |
| COc1cc(I)cc(C(=O)N[C@@H]2CN3CCC2CC3)c1OC [TDP 960] | 1.87 | Ki (5-HT-3 receptor [2]; [6]): 1.35 nM |
| O=C(N[C@@H]1CN2CCC1CC2)c1cc(Cl)cc(I)c1OCCCF [TDP 1050] | 2.38 | – |
| COc1c(I)cc(Cl)cc1C(=O)N[C@@H]1CN2CCC1CC2 [TDP 1040] | – | chromatographic logD [1]: 2.34 |
| CCCOc1ccc(I)cc1C(=O)N[C@@H]1CN2CCC1CC2 [TDP 9l7] | 2.81 | – |
| O=C(N[C@@H]1CN2CCC1CC2)c1cc(I)ccc1OCCF [TDP 920] | 2.15 | – |
| C=CCOc1c(I)cc(Cl)cc1C(=O)N[C@@H]1CN2CCC1CC2 [TDP 1046] | 2.63 | – |
| CN1[C@@H]2CC[C@H]1C[C@@H](OC(=O)c1cc(Cl)cc(Cl)c1)C2 [bemestron] | – | Ki (5-HT-3 receptor [2]; [6]): 18.3 nM |
| COc1ccc(Br)cc1C(=O)N[C@@H]1CN2CCC1CC2 [TDP 922] | 2.02 | – |
| CC(C)Oc1c(I)cc(Cl)cc1C(=O)N[C@@H]1CN2CCC1CC2 [TDP 1062] | 2.45 | – |
| CCCOc1c(I)cc(Cl)cc1C(=O)N[C@@H]1CN2CCC1CC2 [TDP 1065] | 2.7 | – |
| O=C(N[C@@H]1CN2CCC1CC2)c1cc(I)ccc1OCCCF [TDP 921] | 2.44 | – |
| COc1cc(Cl)cc(C(=O)N[C@@H]2CN3CCC2CC3)c1OCCF [TDP 994] | 1.58 | – |

| SMILES | chromatographic logD [1, 5] | also measured |
| --- | --- | --- |
| COc1cc(N)c(Cl)cc1C(=O)N[C@@H]1CN2CCC1CC2 [(S)-zacopride, 5-chloro-4-amino-2-methoxy-N-(3-quinuclidinyl)benzamide] | – | Ki (5-HT-3 receptor [2]; [6]): 0.38 nM; block of drug-induced anxiety (drug-induced anxiety): inactive; antiemetic activity (emesis): effective antiemetic agent; Ki (5-HT-3 receptor [3]; (S)-form of zacopride): 0.3 nM |
| COc1cc(N)c(Cl)cc1C(=O)N[C@H]1CN2CCC1CC2 [(R)-zacopride, 5-chloro-4-amino-2-methoxy-N-(3-quinuclidinyl)benzamide] | – | block of drug-induced anxiety (drug-induced anxiety): able to block drug-induced anxiety; cognitive-enhancing properties (animal behavioral models): shows cognitive-enhancing properties; affinity for the 5-HT-3 receptor relative to (S)-zacopride (5-HT-3 receptor [3]): ten times lower affinity |
| COc1cc([125I])cc(C(=O)N[C@@H]2CN3CCC2CC3)c1OC [[^125 I]-4, (S)-N-[3-(1-azabicyclo[2.2.2]octyl)]-2,3-dimethoxy-5-[^125 I]iodobenzamide] | – | Kd (5-HT-3 receptor [4]): 1.5 nM |
| CC(C)Oc1ccc(I)cc1C(=O)N[C@@H]1CN2CCC1CC2 [TDP 919] | 2.52 | – |
| CCOc1c(OC)cc(I)cc1C(=O)N[C@@H]1CN2CCC1CC2 [TDP 1022] | 2.19 | – |
| c1ccc2nc(N3CCNCC3)ccc2c1 [quipazine] | – | Ki (5-HT-3 receptor [2]; [6]): 0.48 nM |
| CCOc1cc(Br)cc(C(=O)N[C@@H]2CN3CCC2CC3)c1OC [TDP 924] | 2.14 | – |
| COc1ccc(F)cc1C(=O)N[C@@H]1CN2CCC1CC2 [TDP 1087] | 1.34 | – |
| COc1cc(I)cc(C(=O)N[C@H]2CN3CCC2CC3)c1OC [TDP 991, (R)-N-[3-1-Azabicyclo [2.2.2.]octyl]-5-iodo-2,3-dimethoxy-benzamide] | 1.87 | Ki (5-HT-3 receptor [2]; [6]): 19 nM |
| COc1ccc(I)cc1C(=O)N[C@@H]1CN2CCC1CC2 [TDP 915] | 2.15 | – |
| COc1c(OCCF)cc(Cl)cc1C(=O)N[C@@H]1CN2CCC1CC2 [TDP 999] | 1.7 | – |
| CCOc1c(I)cc(Cl)cc1C(=O)N[C@@H]1CN2CCC1CC2 [TDP 1059] | 2.47 | – |
| CCOc1ccc(I)cc1C(=O)N[C@@H]1CN2CCC1CC2 [TDP 916] | 2.38 | – |
| C#CCOc1c(I)cc(Cl)cc1C(=O)N[C@@H]1CN2CCC1CC2 [TDP 1053] | 2.57 | – |
| O=C(N[C@@H]1CN2CCC1CC2)c1cc(Cl)cc(I)c1OCCF [TDP 1056] | 1.95 | – |
